In US20220274980A1, “PHARMACOLOGICAL INHIBITORS OF THE ENL YEATS DOMAIN” (priority 2019, published 2022):
Where two headings read alike, the source gives them in different places.

What was measured:
[1] = target: T1, ENL YEATS domain (association with H3K27cr) (Homo sapiens, UniProt Q03111); assay: biochemical; conditions: ENL (YEATS)-H3K27cr HTRF (IC50, μM)
T1 sequence (Q03111 1-148): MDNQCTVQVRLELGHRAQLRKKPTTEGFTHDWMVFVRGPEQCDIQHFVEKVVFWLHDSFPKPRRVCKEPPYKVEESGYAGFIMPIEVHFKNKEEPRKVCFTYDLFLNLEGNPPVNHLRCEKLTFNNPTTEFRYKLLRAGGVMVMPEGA
Procedure: (§1) Protein Production. Double stranded DNA fragments encoding the protein sequence of ENL YEATS(1-148) were synthesized (IDT DNA) for assembly-based cloning into a modified expression vector backbone derived from pET21a (Novagen). The protein was fused to a StrepII-SUMO and 6×His tag on the amino and carboxy terminus, respectively. Transformed BL21(DE3) cells (New England Biolabs) were grown at 37° C. in 2×YT growth medium to an OD600 of 0.6. Protein expression was induced at 25° C. with the addition of isopropyl-β-D-thiogalactopyranoside (IPTG) to a final concentration of 0.4 mM. The culture was harvested by centrifugation following a 20-hour incubation and subsequently purified by immobilized metal affinity chromatography. Cells were resuspended 50 mM Tris-HCl pH 8.0, 300 mM NaCl, 10% glycerol, 10 mM imidazole, 1 mM DTT containing Complete EDTA-free protease inhibitor (Roche) and lysed by two passes through a MicroFluidizer at 10,000 psi. The lysate was clarified by centrifugation at 16,000 rpm for 30 minutes at 4° C. The supernatant was passed over NiNTA agarose (QIAGEN) and the protein was eluted in 50 mM Tris-HCl pH 8.0, 300 mM NaCl, 10% glycerol, 250 mM imidazole, 1 mM DTT. Fractions containing the ENL YEATS(1-148) fusion protein were buffer exchanged into 100 mM Tris-HCl pH 8.0, 150 mM NaCl, 1 mM EDTA, 1 mM DTT using PD10 desalting columns (GE Life Sciences). Ulp1 protease was added to cleave the StrepII-SUMO fusion and the reaction mixture was incubated overnight at 4° C. The cleavage reaction mixture was loaded onto a StrepTrap column (GE Life Sciences) and ENL YEATS(1-148) was recovered in the flow through. BRD4 BD1 was purchased from Cayman (Cat. No. 11720).
(§2) Homogenous time-resolved FRET (HTRF) histone-binding assays. Both HTRF assays were performed by combining recombinant protein and synthetic histone peptide in assay buffer (25 mM HEPES pH 7, 20 mM NaCl, 0.2% Pluronic F-127, and 0.05% BSA) with 1 nM LanthaScreen Eu-anti-His Tag antibody (ThermoFisher, Cat. No, PV5597) and 8.9 nM SureLight allophycocyanin-streptavidin (Perkin Elmer, APC-SA, Cat. No. CR130-100). ENL YEATS was used at 5 nM and BRD4 BD1 was used at 10 nM. ENL assays were performed with H3(13-32)K27cr (13.3 and 100 nM, respectively), custom synthesized at ABclonal (N-terminal biotin, C-terminal amide); BRD4 BD1 assay was performed with 13.3 nM tetra-acetylated H4 (BioVision, Cat. No. 7144-01). Once all reagents were combined (with or without peptide), 10 μL was dispensed per well into black 384-well low-volume plates (Corning, Cat. No. 3821) and drug was added by pin tool transfer (Biomek FX). Assays were incubated for 2 or more hours before measurement of HTRF signal on a PHERAstar plate reader (BMG Labtech; simultaneous dual emission; excitation=337 nm, emission 1=665 nm, emission 2=620 nm). HTRF signal (ratio of emission 1 to emission 2) from vehicle-treated wells (maximum signal) and no-peptide-control wells (minimum signal) were used to calculate percent inhibition for drug-treated wells.

ENL(YEATS)-HiBiT [2] = target: T2, ENL(YEATS)-HiBiT (Homo sapiens, UniProt Q03111); conditions: read-out: ENL YEATS CETSA (IC50); Table 2; OCI/AML-2 cells expressing ENL(YEATS)-HiBiT
T2 sequence (Q03111 1-138 limits assumed): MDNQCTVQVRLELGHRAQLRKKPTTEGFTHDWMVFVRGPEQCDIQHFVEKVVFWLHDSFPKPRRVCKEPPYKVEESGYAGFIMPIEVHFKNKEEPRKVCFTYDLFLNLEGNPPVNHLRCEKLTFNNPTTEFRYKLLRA
Procedure: (§3) Cellular thermal shift assay (CETSA). […] Cells were transferred to 384-well (20,000 cells per well in 20 μL) or 1,536-well (3,000 cells per well in 4 μL) plates and drug was transferred using a 100 nL pin tool for 384-well plates or acoustic transfer (Labcyte, Echo Liquid Handler) for 1,536-well plates. Luminescent detection of HiBiT was performed by combining an equal volume of Nano-Glo HiBiT Lytic Reagent (Promega, HiBiT Lytic Detection System, Cat. No. N3040) in each well. […] Briefly, cells were treated with drug, washed with PBS, heated to various temperatures in a thermocycler, cooled to room temperature, lysed by three rounds of freeze-thaw, and then clarified lystaes were subjected to immunoblot analysis.

ENL(YEATS)-HiBiT [3] = target: T2, ENL(YEATS)-HiBiT; assay: cell-based
Procedure: as §3

BRD4 bromodomain 1 (BD1) = target: T3, BRD4 bromodomain 1 (BD1) (Homo sapiens, UniProt O60885); assay: BRD4 (BD1)-H4 tetra-acetylated HTRF histone-binding assay
T3 construct: Selectivity against BRD4 bromodomain 1 (BD1), measured by HTRF; His; purchased Cayman 11720
Procedure: as §1, §2

IC50 ([1]; Table 1) [µM] | IC50 ([1]; Table 2) [µM] | IC50 (ENL(YEATS)-HiBiT [2]) [µM] | IC50 (ENL(YEATS)-HiBiT [3]) [µM] | IC50 (BRD4 bromodomain 1 (BD1); Table 1) [µM] | IC50 (BRD4 bromodomain 1 (BD1); Table 2) [µM] | Compound
> 50 | > 50 | > 50 | > 50 | – | – | CN(C(=O)c1ccc2nc(-c3ccccc3)cn2c1)C1CCC1 [Compound 81]
3.5 | 3.5 | > 100 | > 100 | > 50 | > 50 | CC(C)NC(=O)c1ccc2nc(-c3cccc(OC(F)(F)F)c3)cn2c1 [Compound 3]
1.8 | 1.8 | – | 41 | > 50 | > 50 | O=C(NC1CCCC1)c1ccc2nc(-c3ccccc3)cn2c1 [Compound 23]
> 50 | > 50 | > 100 | > 100 | > 50 | > 50 | CCC(CC)NC(=O)c1ccc2nc(-c3ccccc3)cn2c1 [Compound 13]
4.6 | 4.6 | > 50 | > 50 | – | – | CC1CC(NC(=O)c2ccc3nc(-c4ccccc4)cn3c2)C1 (stereo not shown) [Compound 87]
> 50 | > 50 | > 50 | > 50 | – | – | CC1(NC(=O)c2ccc3nc(-c4ccccc4)cn3c2)CCC1 [Compound 73]
> 50 | > 50 | > 100 | > 100 | > 50 | > 50 | O=C(NC1CCCCC1O)c1ccc2nc(-c3ccccc3)cn2c1 (stereo not shown) [Compound 11]
> 50 | > 50 | > 50 | > 50 | – | – | CC(C)(C)C1CC(NC(=O)c2ccc3nc(-c4ccccc4)cn3c2)C1 (stereo not shown) [Compound 120]
> 50 | > 50 | > 50 | > 50 | – | – | O=C(N[C@@H]1CC[C@@H]1c1ccccc1)c1ccc2nc(-c3ccccc3)cn2c1 [Compound 115]
1.3 | 1.3 | – | 80 | > 50 | > 50 | COc1ccc(-c2cn3cc(C(=O)NC(C)C)ccc3n2)cc1 [Compound 22]
> 50 | > 50 | > 100 | > 100 | > 50 | > 50 | CC(C)NC(=O)c1ccc2nc(-c3ccc(OC(F)(F)F)cc3)cn2c1 [Compound 19]
> 50 | > 50 | > 50 | > 50 | – | – | O=C(NC1CC(F)(F)C1)c1ccc2nc(-c3ccccc3)cn2c1 [Compound 75]
> 50 | > 50 | > 100 | > 100 | > 50 | > 50 | CC(C)N(C)C(=O)c1ccc2nc(-c3ccccc3)cn2c1 [Compound 8]
6.8 | 6.8 | – | 80 | > 50 | > 50 | O=C(NCc1cccnc1)c1ccc2nc(-c3ccccc3)cn2c1 [Compound 9]
> 50 | > 50 | > 50 | > 50 | – | – | CC(C)C1CC(NC(=O)c2ccc3nc(-c4ccccc4)cn3c2)C1 (stereo not shown) [Compound 119]
> 50 | > 50 | > 100 | > 100 | > 50 | > 50 | CC(C)NC(=O)c1ccc2nc(-c3ccccc3OC(F)(F)F)cn2c1 [Compound 12]
